As usually defined, the AC50 is the concentration giving half of the maximal activity seen.

The source of these data is patent US10287266B2, “Compounds and compositions for inhibiting the activity of SHP2” (NOVARTIS AG, priority 2015, dated 2019).

SMILES strings stand for the structures.

The assay deals with T1, SHP2 (Homo sapiens, UniProt Q06124).
T1 sequence (Q06124 1-593): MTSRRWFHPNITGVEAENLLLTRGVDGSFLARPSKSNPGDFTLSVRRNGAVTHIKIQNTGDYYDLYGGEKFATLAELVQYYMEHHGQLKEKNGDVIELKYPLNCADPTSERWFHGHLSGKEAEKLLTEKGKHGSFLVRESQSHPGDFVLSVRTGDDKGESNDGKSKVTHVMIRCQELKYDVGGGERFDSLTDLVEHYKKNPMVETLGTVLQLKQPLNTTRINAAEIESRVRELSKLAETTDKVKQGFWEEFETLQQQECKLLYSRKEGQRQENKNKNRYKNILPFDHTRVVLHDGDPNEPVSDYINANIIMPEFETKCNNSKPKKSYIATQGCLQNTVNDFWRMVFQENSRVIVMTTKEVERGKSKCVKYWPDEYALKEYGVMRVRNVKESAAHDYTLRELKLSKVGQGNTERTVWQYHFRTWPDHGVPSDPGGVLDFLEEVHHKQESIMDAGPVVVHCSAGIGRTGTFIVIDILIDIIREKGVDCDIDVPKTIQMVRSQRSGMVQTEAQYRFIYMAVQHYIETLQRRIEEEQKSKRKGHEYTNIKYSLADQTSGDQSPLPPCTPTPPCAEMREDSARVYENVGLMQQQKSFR
As to the kind of experiment: SHP2 Allosteric Inhibition Assay. The assay is classed as biochemical. Particulars: 0.5 nM SHP2 activated with 0.5 μM peptide IRS1_pY1172(dPEG8)pY1222; surrogate substrate DiFMUP, prompt fluorescence, 25° C. The source says:
SHP2 Allosteric Inhibition Assay
SHP2 is allosterically activated through binding of bis-tyrosyl-phorphorylated peptides to its Src Homology 2 (SH2) domains. The latter activation step leads to the release of the auto-inhibitory interface of SHP2, which in turn renders the SHP2 protein tyrosine phosphatase (PTP) active and available for substrate recognition and reaction catalysis. The catalytic activity of SHP2 was monitored using the surrogate substrate DiFMUP in a prompt fluorescence assay format.
After 30-60 minutes incubation at 25° C., the surrogate substrate DiFMUP (Invitrogen, cat# D6567) was added to the reaction and incubated at 25° C. for 30 minutes. […] The inhibitor dose response curves were analyzed using normalized IC50 regression curve fitting with control based normalization.
Take `CCc1ccccc1Sc1cnc(N2CCC3(CCC[C@@H]3N)CC2)cn1` [Example 125]: the AC50 was 101 nM. For `Nc1cc(Sc2cnc(N3CCC4(CC3)C[C@H](F)C[C@H]4N)cn2)c(Cl)c(Cl)n1` [Example 61], the activity was half-maximal at 145 nM (AC50). `CC1CCC2(CCN(c3cnc(Sc4ccnc(N)c4Cl)cn3)CC2)[C@@H]1N` (some centres unmarked) [Example 13] showed an AC50 of 5.9 nM. With `N[C@@H]1CCCC12CCN(c1cnc(Sc3cccc(CN4CCOCC4)c3)cn1)CC2` [Example 94], the concentration at half-maximal activity (AC50) was 39 nM. The same measure for `NCC1(CO)CCN(c2cnc(Sc3ccnc(N)c3Cl)cn2)CC1` [Example 50]: 70.5 nM; for `N[C@@H]1CCCC12CCN(c1cnc(Sc3ccc(OC(F)(F)F)cc3)cn1)CC2` [Example 88]: 82.3 nM.

The compound `N[C@@H]1CCCC12CCN(c1cnc(Sc3ccccc3Cl)cn1)CC2` [Example 73] registered an AC50 of 17.3 nM. The same measure for `C[C@@H]1OCC2(CCN(c3cnc(Sc4cc(N)nc(Cl)c4Cl)cn3)CC2)[C@@H]1N` [Example 28]: 14.1 nM; for `N[C@@H]1CCCC12CCN(c1cnc(Sc3cccnc3C(F)(F)F)cn1)CC2` [Example 35]: 20.8 nM; for `N[C@@H]1CCCC12CCN(c1cnc(Sc3cccc(S(F)(F)(F)(F)F)c3)cn1)CC2` [Example 102]: 436 nM. `NC1=NC2(CCN(c3cnc(Sc4ccnc(Cl)c4Cl)cn3)CC2)CO1` [Example 4, 8-(5-((2,3-dichloropyridin-4-yl)thio)pyrazin-2-yl)-3-oxa-1,8-diazaspiro[4.5]dec-1-en-2-amine] showed an AC50 of 17.4 nM. For `Nc1nccc(Sc2cnc(N3CCC4(CC3)COCCN4)cn2)c1Cl` [Example 53], the AC50 is 215 nM. This AC50 is about 12-fold higher than that of the compound before.

`CC(C)CC1(CN)CCN(c2cnc(Sc3ccnc(N)c3Cl)cn2)CC1` [Example 29] gave an AC50 of 15.5 nM. Regarding `CC1(CN)CCN(c2cnc(Sc3cc(N)nc(Cl)c3Cl)cn2)CC1` [Example 59], the AC50 was 155 nM. Consider `N[C@@H]1CCCC12CCN(c1cnc(Sc3ccccc3F)cn1)CC2` [Example 70], for which half-maximal activity (AC50) was put at 30.4 nM. The same measure for `N[C@@H]1CCCC12CCN(c1cnc(Sc3ccccc3)cn1)CC2` [Example 72]: 64.6 nM; for `C[C@@H]1OCC2(CCN(c3cnc(Sc4ccnc(N)c4Cl)cn3)CC2)[C@@H]1N` [Example 115]: 24.7 nM; for `CC1(O)C[C@@H](N)C2(CCN(c3cnc(Sc4ccnc(N)c4Cl)cn3)CC2)C1` (some centres unmarked) [Example 41]: 28.2 nM. With `CC(=O)c1cccc(Sc2cnc(N3CCC4(CCC[C@H]4N)CC3)cn2)c1` [Example 119] the figure was 138 nM; with `C[C@@H]1OCC2(CCN(c3cnc(Sc4cccc(O)c4)cn3)CC2)[C@@H]1N` [Example 118], 57 nM; with `COC(=O)C1(CN)CCN(c2cnc(Sc3ccnc(N)c3Cl)cn2)CC1` [Example 44], 45.7 nM. The same measure for `N[C@@H]1COCC12CCN(c1cnc(Sc3ccnc(F)c3Cl)cn1)CC2` [Example 34]: 19.6 nM. `C[C@@H]1OCC2(CCN(c3cnc(Sc4ccnc(C(F)(F)F)c4)cn3)CC2)[C@@H]1N` [Example 122] registered an AC50 of 18.5 nM. This AC50 and that of the compound before are within 1.5-fold of each other. With `Nc1nccc(Sc2cnc(N3CCC4(CC3)C[C@H](O)C[C@H]4N)cn2)c1Cl` [Example 11] the figure was 4.1 nM; with `N[C@@H]1CCCC12CCN(c1cnc(Sc3ccccc3C(F)(F)F)cn1)CC2` [Example 67], 920 nM. The same measure for `C[C@H]1OCC2(CCN(c3cnc(Sc4ccnc(N)c4Cl)cn3)CC2)[C@H]1N` [Example 58]: 454 nM; for `C[C@@H]1OCC2(CCN(c3cnc(Sc4ccncc4F)cn3)CC2)[C@@H]1N` [Example 113]: 34.8 nM; for `Cc1c(Sc2cnc(N3CCC4(CCC[C@H]4N)CC3)cn2)cccc1C(F)(F)F` [Example 98]: 293 nM.

The compound `CC(C)(C)c1cccc(Sc2cnc(N3CCC4(CCC[C@@H]4N)CC3)cn2)c1` [Example 127] showed a half-maximal activity concentration (AC50) of 44.9 nM. Compared with the last compound, the AC50 is about 6.5-fold lower. With `CC1(CN)CCN(c2cnc(Sc3ccnc(N)c3Cl)cn2)CC1` [Example 25] the figure was 10.7 nM; with `N[C@@H]1CCCC12CCN(c1cnc(Sc3ccncc3F)cn1)CC2` [Example 95], 159 nM. `CC1(CN)CCN(c2cnc(Sc3ccnc(N)c3Cl)cn2)CC1O` (single isomer, unassigned) [Example 51] had an AC50 of 72.3 nM. With `COc1ccccc1Sc1cnc(N2CCC3(CCC[C@H]3N)CC2)cn1` [Example 69] the figure was 41.8 nM; with `Cc1ccccc1Sc1cnc(N2CCC3(CCC[C@H]3N)CC2)cn1` [Example 121], 44.9 nM; with `CC1(N)CCN(c2cnc(Sc3cccc(N)c3Cl)cn2)CC1` [Example 36], 23.6 nM.

`Nc1nccc(Sc2cnc(N3CCC4(CC3)C[C@@H](F)C[C@H]4N)cn2)c1Cl` [Example 27] gave an AC50 of 12.1 nM. With `Nc1cc(Sc2cnc(N3CCC4(CC3)COC[C@H]4N)cn2)c(Cl)c(Cl)n1` [Example 24] the figure was 10.4 nM. With `CC1CCC2(CCN(c3cnc(Sc4ccnc(N)c4Cl)cn3)CC2)[C@@H]1N` (some centres unmarked) [Example 38] the figure was 24.7 nM. With `C[C@@H]1OCC2(CCN(c3cnc(Sc4ccnc(N)c4Cl)cn3)CC2)[C@@H]1N` [Example 3, (3S,4S)-8-(5-((2-amino-3-chloropyridin-4-yl)thio)pyrazin-2-yl)-3-methyl-2-oxa-8-azaspiro[4.5]decan-4-amine] the figure was 7.9 nM; with `CCCC1(N)CCN(c2cnc(Sc3ccnc(N)c3Cl)cn2)CC1` [Example 42], 31.3 nM.

In turn, `CC(C)(C)c1ccc(Sc2cnc(N3CCC4(CCC[C@@H]4N)CC3)cn2)cc1` [Example 132] showed an AC50 of 1960 nM. Against the preceding compound, the AC50 is about 63-fold higher. With `Nc1nccc(Sc2cnc(N3CCC4(CC3)COC[C@H]4N)cn2)c1Cl` [Example 16] the figure was 6.1 nM; with `N[C@@H]1CCCC12CCN(c1cnc(Sc3ccc(Br)c(Cl)c3)cn1)CC2` [Example 91], 666 nM. Compound `CCc1ccc(Sc2cnc(N3CCC4(CCC[C@@H]4N)CC3)cn2)cc1` [Example 128] showed an AC50 of 287 nM. With `N[C@@H]1COCC12CCN(c1cnc(Sc3ccncc3Cl)cn1)CC2` [Example 23] the figure was 10.4 nM. With `N#Cc1cccc(Sc2cnc(N3CCC4(CCC[C@H]4N)CC3)cn2)c1` [Example 80] the figure was 210 nM; with `N[C@@H]1CCCC12CCN(c1cnc(Sc3cccnc3)cn1)CC2` [Example 106], 11300 nM. With `Nc1nccc(Sc2cnc(N3CCC4(CCCCN4)CC3)cn2)c1Cl` [Example 8, 4-((5-(1,9-diazaspiro[5.5]undecan-9-yl)pyrazin-2-yl)thio)-3-chloropyridin-2-amine] the figure was 434 nM; with `CC(C)c1ccccc1Sc1cnc(N2CCC3(CCC[C@@H]3N)CC2)cn1` [Example 124], 98 nM. As to `CCCC1(CN)CCN(c2cnc(Sc3ccnc(N)c3Cl)cn2)CC1` [Example 31], the AC50 came out at 17.6 nM. Compared with the last compound, the AC50 is about 5.6-fold lower. The same measure for `NCC1(c2ccccn2)CCN(c2cnc(Sc3ccnc(N)c3Cl)cn2)CC1` [Example 45]: 47.1 nM. For the compound `CCC1(CN)CCN(c2cnc(Sc3ccnc(N)c3Cl)cn2)CC1` [Example 18], half-maximal activity (AC50) was put at 8.2 nM. This AC50 lies about 5.7-fold lower than the previous one. With `N[C@@H]1CCCC12CCN(c1cnc(Sc3cccc(C4CC4)c3)cn1)CC2` [Example 84] the figure was 33.9 nM. For the compound `Cc1cccc(Sc2cnc(N3CCC4(CCC[C@H]4N)CC3)cn2)c1` [Example 64], the activity was half-maximal at 48.2 nM (AC50).

Compound `C[C@@H]1OCC2(CCN(c3cnc(Sc4cc[nH]c(=O)c4Cl)cn3)CC2)[C@@H]1N` [Example 109] had an AC50 of 28.8 nM. Against the preceding compound, the AC50 is about 1.7-fold lower. With `Nc1cccc(Sc2cnc(N3CCC4(CCC[C@H]4N)CC3)cn2)c1` [Example 79] the figure was 31.4 nM. Regarding `N[C@@H]1CCCC12CCN(c1cnc(Sc3ccc(F)cc3F)cn1)CC2` [Example 100], half-maximal activity (AC50) was put at 151 nM.

Consider `N[C@@H]1CCCC12CCN(c1cnc(Sc3ccccc3OC(F)(F)F)cn1)CC2` [Example 65], for which the AC50 amounted to 30.5 nM. Against the preceding compound, the AC50 is about 5-fold lower. Take `CC(C)C1(CN)CCN(c2cnc(Sc3ccnc(N)c3Cl)cn2)CC1` [Example 32]: the concentration at half-maximal activity (AC50) came to 17.8 nM. The same measure for `N[C@@H]1CCCC12CCN(c1cnc(Sc3c(F)c(F)cc(F)c3F)cn1)CC2` [Example 101]: 2510 nM; for `N[C@@H]1CCCC12CCN(c1cnc(Sc3cccc(CO)c3)cn1)CC2` [Example 81]: 54.8 nM. With `CC(C)c1ccccc1Sc1cnc(N2CCC3(CCC[C@H]3N)CC2)cn1` [Example 63] the figure was 44.6 nM; with `N[C@@H]1CCCC12CCN(c1cnc(Sc3cccc(F)c3F)cn1)CC2` [Example 75], 97.7 nM; with `CC(C)(C)c1ccccc1Sc1cnc(N2CCC3(CCC[C@H]3N)CC2)cn1` [Example 66], 1460 nM. The same measure for `COc1cccc(Sc2cnc(N3CCC4(CCC[C@H]4N)CC3)cn2)c1` [Example 74]: 37.6 nM.
